The text below walks through data of ChEMBL document CHEMBL1201862, “PubChem BioAssay data set” (2004).

Structures are written as SMILES.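 Growth conditions: 96-well plates. Treatment: test compound, 48 hours, 5 concentrations. Analysis: linear interpolation between bracketing concentrations; unreached endpoints set to highest concentration. GI50 is the concentration that inhibits growth by half.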 The source made the active and inactive calls. No stated cut-off is given here; in the data, active = GI50 up to about 1.1 µM and inactive = higher.

Holding throughout (test): inhibition of tumour cell growth, NCI panel, 48 h
Test [1] concerns UACC-257.
Test [2] deals with RXF 393.
Test [3] deals with HOP-62.
Test [4] deals with KM12.
In test [5] the test system is EKVX.
The subject of test [6] is SW-620.
In test [7] the test system is HL-60.
Test [8] deals with NCI-H23.
The test system of test [9] is K562.
The test system of test [10] is LOX IMVI.
Test [11] concerns OVCAR-4.
Test [12] relates to A498.
The test system of test [13] is A549.
For test [14], the system named is HOP-92.

With `C[N+](C)(C)Cc1c(CC#N)[nH]c2ccccc12`, the GI50 in [1], in [2], in test [3], in [4], in test [5] and in test [6] was > 100 µM (inactive) throughout. Further, the GI50 was 36.9 µM (inactive) in test [7]; > 100 µM (inactive) in test [8]; 25.8 µM (inactive) in [9]; > 100 µM (inactive) in test [10]; 1.2 µM (inactive) in test [11]; > 100 µM (inactive) in test [12]. Also, the GI50 in test [13] was > 100 µM (inactive).
Regarding `CCOC(=O)C(=O)Nc1c(C)cccc1C(C)(C)C`, the GI50 in [1], in test [2], in [3], in [4], in [5] and in [6] was > 100 µM (inactive) each time. Moreover, the GI50 was > 100 µM (inactive) in test [14]; > 100 µM (inactive) in test [8]; > 100 µM (inactive) in test [9]; > 100 µM (inactive) in [10]; 73.3 µM (inactive) in test [11].
On to `O=Cc1cn(S(=O)(=O)c2ccccc2)c2ccccc12`, for which the GI50 was 29.6 µM (inactive) in test [1]; 95.5 µM (inactive) in test [2]; > 100 µM (inactive) in [3]; 86.5 µM (inactive) in test [4]; > 100 µM (inactive) in [5]; 35.5 µM (inactive) in test [6]. In addition, the GI50 in test [7] is 16.7 µM (inactive); in [8] it was 26.4 µM (inactive); in [9], 19.9 µM (inactive); in test [10], 20.6 µM (inactive); in test [11], 33.6 µM (inactive); in test [12], > 100 µM (inactive). Moreover, the GI50 in [13] was > 100 µM (inactive).
Regarding `COc1ccc2c3c([nH]c2c1[N+](=O)[O-])C(C)N(Cc1ccccc1)CC3` (stereo unspecified), the GI50 in test [1] was 2.39 µM (inactive); in test [2], 3.21 µM (inactive); in test [3], 2.07 µM (inactive); in test [4], 3.59 µM (inactive); in test [5], 40.3 µM (inactive); in [6], 2.11 µM (inactive). The GI50 was 2.18 µM (inactive) in test [7]; 7.94 µM (inactive) in test [8]; 0.643 µM (active) in test [9]; 3.91 µM (inactive) in test [10]; 13.9 µM (inactive) in [11]; 2.4 µM (inactive) in test [12]. Also, the GI50 in test [13] is 5.05 µM (inactive).
On to `CCCCc1c2c(nc3c1CC/C(=C\c1ccc([N+](=O)[O-])cc1)C3=O)CCCC2`, for which the GI50 in [1] is 2.3 µM (inactive); in test [2] it was 1.3 µM (inactive); in [3] it was 1.73 µM (inactive); in test [4] it was 1.7 µM (inactive); in test [5] it was 11.4 µM (inactive); in test [6] it was 1.69 µM (inactive). Besides, the values for the GI50 in test [9], in test [10] and in [13] were 2.17 µM (inactive), 1.6 µM (inactive) and 4.41 µM (inactive), respectively.
For the compound `O=C(c1ccccc1)c1nc2c(Cl)ccc(Cl)c2cc1C(Br)Br`, the GI50 in [1] was 0.419 µM (active); in test [2], 2.34 µM (inactive); in [3], 1.67 µM (inactive); in test [4], 1.14 µM (inactive); in test [6], 0.308 µM (active); in test [9] it was 0.311 µM (active). Also, the GI50 in test [10] is 1.65 µM (inactive); in test [11] it was 1.82 µM (inactive); in test [13], 3.08 µM (inactive).
In the case of `CC(C)(C)c1cc(C#N)c2c(c1)C(=O)OC2(c1ccccc1)c1ccccc1C#N` (stereo unspecified), the GI50 in test [1] was 87.7 µM (inactive); in test [2], > 100 µM (inactive); in [3], > 100 µM (inactive); in test [4], 43 µM (inactive); in test [5] it was > 100 µM (inactive); in [6] it was > 100 µM (inactive). Further, the GI50 in test [7] is 7.38 µM (inactive); in [8], > 100 µM (inactive); in test [9] it was 45.4 µM (inactive); in [10], > 100 µM (inactive); in test [11], > 100 µM (inactive); in test [12] it was > 100 µM (inactive). Moreover, the GI50 in [13] was > 100 µM (inactive).
With `Cc1ccc(C)c2c1CCc1cc3ccccc3nc1-2`, the GI50 in test [1], in test [3], in test [4], in test [5], in test [6] and in [8] was > 100 µM (inactive) each time. In addition, the GI50 in test [9], in test [11], in [12] and in test [13] was > 100 µM (inactive) throughout.
On to `COc1cc(C(=O)C/C(CCC(=O)Nc2ccc(Cl)cc2C)=N/NC(=O)C(N)=O)ccc1O`, for which the GI50 in test [1], in [3], in [4], in test [5], in test [6] and in test [7] was > 100 µM (inactive) in each case. Besides, the GI50 in test [14], in test [8], in test [9], in [10], in [11] and in test [12] was > 100 µM (inactive) each time. Also, the GI50 in test [13] was > 100 µM (inactive).
`O=C1C2=C(c3ccccc31)C(c1ccc(F)cc1)N1C(=O)CCSC1=N2` (stereo unspecified): the GI50 is > 100 µM (inactive) in [1]; > 100 µM (inactive) in test [3]; 55.1 µM (inactive) in test [4]; > 100 µM (inactive) in test [5]; > 100 µM (inactive) in [6]; 65.6 µM (inactive) in test [7]. Moreover, the GI50 in test [14] is 24.7 µM (inactive); in test [8], > 100 µM (inactive); in test [9], > 100 µM (inactive); in test [11] it was 56 µM (inactive); in [12] it was > 100 µM (inactive); in [13], > 100 µM (inactive).
Turning to `COc1c(C)cc2c(c1O)C1NC(C2)[C@H](O)N2C3COC(=O)[C@@]4(CS[C@@H](c5c(OC(C)=O)c(C)c6c(c53)OCO6)C12)NCCC1=C4NC2C=CC=CC12` (stereo partly specified), the GI50 in test [2], in [3], in test [5], in test [6], in test [7] and in test [8] was < 0.01 µM (active) each time. Moreover, the GI50 in test [9], in test [10], in [12] and in test [13] was < 0.01 µM (active) in each case.
In the case of `CC[P+](C)(Cc1ccccc1)c1ccccc1.O=C(OC(C(=O)[O-])C(OC(=O)c1ccccc1)C(=O)O)c1ccccc1` (stereo unspecified), the GI50 in test [1], in test [2], in [3], in [4], in [5] and in test [8] was > 100 µM (inactive) throughout. In addition, the GI50 in test [9], in test [10], in test [11] and in [13] was > 100 µM (inactive) throughout.
